Experiments:
Ndufs4−/− mice [1] = assay: Accelerating rotarod performance in Ndufs4−/− mice; format: in vivo, mouse; conditions: Ndufs4KO mice, CBD 100 mg/kg once daily; postnatal day 30, 40, 50
Excerpt: (§1) Two mouse lines were used in this study: (1) a validated mouse genetic model of MD (Kruse, S. E., et al. Cell Metab. 2008, 7: 312-320; Quintana, A., et al. Proc. Natl. Acad. Sci. USA. 2010, 107: 10996-11001), lacking Ndufs4 constitutively (Ndufs4^−/−, Ndufs4 KO) and wild-type (WT) littermates (Ndufs4^+/+) as controls, and (2) a conditional knockout mouse line lacking Ndufs4 selectively in GABAergic cells (Bolea et al. 2019 (https://elifesciences.org/articles/47163). For the latter, mice expressing cre-recombinase under the control of the Gad2 promoter (Quintana, A., et al. Nat. Neurosci. 2012, 15: 1547-1555) and one floxed Ndufs4 allele (Gad2^cre/+:Ndufs4^lox/+) were bred with mice carrying two floxed Ndufs4 alleles (Ndufs4^lox/lox). Out of all the possible offspring, Gad2^cre/+: Ndufs4^lox/lox mice bear Ndufs4 deficiency selectively in GABAergic neurons. Mice with Gad2^cre/+:Ndufs4^lox/+ genotype with one functional Ndufs4 allele as well as mice with the Gad2^cre/+:Ndufs4^lox/lox genotype were used as controls.
Rotarod was performed at postnatal day 30, 40, and 50. Mice were placed on a rotating drum that gradually accelerated from 4 rpm to 40 rpm over 300 sec. Each trial ended when a mouse fell off, made one complete backward revolution while hanging on, or reached 5-min. Each mouse was tested in 3 trials/day spaced 20 min apart. The results of the 3 trials were averaged.

Gad2:Ndufs4cKO mice [2] = assay: Three-chamber social approach test; format: in vivo, mouse; conditions: control mice, CBD 100 mg/kg twice/day
Excerpt: as §1, with “Mice with Gad2^cre/+:Ndufs4^lox/+ genotype with one functional Ndufs4 allele as well as mice with the Gad2^cre/+:Ndufs4^lox/lox genotype were used as controls.” left out
A three-chamber arena was used to assess sociability as previously described (Puighermanal et al, Front Mol Neurosci., 2017, 10:419). […] The time spent sniffing the unfamiliar mouse and the empty wire cage was manually scored. The discrimination index for sociability was calculated as follows: (time exploring unfamiliar mouse—time exploring empty wire cage)/(total exploration time)*100. […]

Gad2:Ndufs4cKO mice [3] = assay: Survival of Gad2:Ndufs4cKO mice (cell type-specific mouse model of Leigh syndrome); format: in vivo
Excerpt: as §1
Given the early onset severe phenotype that results in death at a median age of ˜40 days in Ndufs4^−/− mice, it is difficult to study certain clinical signs that recapitulate some symptoms of the human pathology. […]

Ndufs4−/− mice [4] = assay: Survival of Ndufs4−/− mice (mouse model of Leigh syndrome); format: in vivo
Excerpt: as §1
Ndufs4 encodes a protein involved in assembly, stability, and activity of complex I of the mitochondrial electron transport chain. Ndufs4^−/− mice display a progressive neurodegenerative phenotype, which resembles the human disease and includes retarded growth rate, weight loss, lethargy, loss of motor skills, and premature death.

Ndufs4−/− mice [5] = assay: Clasping onset in Ndufs4−/− mice; format: in vivo, mouse; conditions: CBD 100 mg/kg once daily vs vehicle-treated, p<0.05
Excerpt: as §1
Clasping behaviour was used as a sign of neurological degeneration (Johnson, S. C., et al. Science. 2013, 342: 1524-1528). Clasping consisted in an inward curling of the spine and a retraction of the forelimbs and/or hindlimbs toward the midline of the body.

[6] = rodents; cited from earlier work

## C=C(C)[C@@H]1CCC(C)=C[C@H]1c1c(O)cc(CCCCC)cc1O [CBD, (−)-trans-2-p-mentha-l,8-dien-3-yl-5-pentylresorcinol]
Ndufs4−/− mice [1]
  rotarod performance (time to fall off): delayed the progressive decline
Gad2:Ndufs4cKO mice [2]
  sociability (social interaction): no effect
Gad2:Ndufs4cKO mice [3]; CBD 100 mg/kg intraperitoneal twice daily from postnatal day 35-40, p<0.0001
  average survival time: 87 days
Gad2:Ndufs4cKO mice [3]; CBD 100 mg/kg twice daily, log-rank p<0.0001
  life span (survival): extended the life span
Ndufs4−/− mice [4]; Ndufs4KO mice, CBD 100 mg/kg once/day intraperitoneal from postnatal day 24-30
  median survival: 75.5 days
Ndufs4−/− mice [4]; Ndufs4−/− mice, CBD 100 mg/kg once daily, log-rank p<0.0001
  life span (survival): significantly extended the life span
Ndufs4−/− mice [5]
  appearance (onset) of clasping: significantly delayed
[6]
  half-life: ~4.5 h

Source: patent US12343316B2, “Cannabidiol and/or derivatives thereof for use in the treatment of mitochondrial diseases” (U[…] DE BARCELONA, priority 2019, dated 2025)
